Experimental findings from patent US9670161B2, “5-fluoro-N-(pyridin-2-yl)pyridin-2-amine derivatives containing a sulfone group” (BAYER PHARMA AKTIENGESELLSCHAFT, priority 2012, dated 2017) are described below.

Structures are written as SMILES.

One may read the IC50 as the concentration needed to halve the response being measured. A lower IC50 goes with greater potency in that assay.

Assay [1] deals with T1, CDK9/CycT1 (Homo sapiens (Human), UniProt P50750). Kind of assay: CDK9/CycT1 high ATP kinase assay (TR-FRET, 2 mM ATP). The format is biochemical. Particulars: Method 1b. As for the experimental part: 1b. CDK9/CycT1 High ATP Kinase Assay
CDK9/CycT1-inhibitory activity of compounds of the present invention at a high ATP concentration after preincubation of enzyme and test compounds was quantified employing the CDK9/CycT1 TR-FRET assay as described in the following paragraphs.
Recombinant full-length His-tagged human CDK9 and CycT1, expressed in insect cells and purified by Ni-NTA affinity chromatography, were purchase from Invitrogen (Cat. No PV4131). As substrate for the kinase reaction biotinylated peptide biotin-Ttds-YISPLKSPYKISEG (C-terminus in amid form) was used which can be purchased e.g. form the company JERINI peptide technologies (Berlin, Germany).
(§1) For the assay 50 nl of a 100 fold concentrated solution of the test compound in DMSO was pipetted into a black low volume 384 well microtiter plate (Greiner Bio-One, Frickenhausen, Germany), 2 μl of a solution of CDK9/CycT1 in aqueous assay buffer [50 mM Tris/HCl pH 8.0, 10 mM MgCl2, 1.0 mM dithiothreitol, 0.1 mM sodium ortho-vanadate, 0.01% (v/v) Nonidet-P40 (Sigma)] were added and the mixture was incubated for 15 min at 22° C. to allow pre-binding of the test compounds to the enzyme before the start of the kinase reaction. Then the kinase reaction was started by the addition of 3 μl of a solution of adenosine-tri-phosphate (ATP, 3.3 mM=>final conc. in the 5 μl assay volume is 2 mM) and substrate (1.67 μM=>final conc. in the 5 μl assay volume is 1 μM) in assay buffer and the resulting mixture was incubated for a reaction time of 25 min at 22° C. The concentration of CDK9/CycT1 was adjusted depending of the activity of the enzyme lot and was chosen appropriate to have the assay in the linear range, typical concentrations were in the range of 0.5 μg/mL. The reaction was stopped by the addition of 5 μl of a solution of TR-FRET detection reagents (0.2 μM streptavidine-XL665 [Cisbio Bioassays, Codolet, France] and 1 nM anti-RB(pSer807/pSer811)-antibody from BD Pharmingen [#558389] and 1.2 nM LANCE EU-W1024 labeled anti-mouse IgG antibody [Perkin-Elmer, product no. AD0077]) in an aqueous EDTA-solution (100 mM EDTA, 0.2% (w/v) bovine serum albumin in 100 mM HEPES/NaOH pH 7.0).
(§2) The resulting mixture was incubated 1 h at 22° C. to allow the formation of complex between the phosphorylated biotinylated peptide and the detection reagents. Subsequently the amount of phosphorylated substrate was evaluated by measurement of the resonance energy transfer from the Eu-chelate to the streptavidine-XL. Therefore, the fluorescence emissions at 620 nm and 665 nm after excitation at 350 nm was measured in a HTRF reader, e.g. a Rubystar (BMG Labtechnologies, Offenburg, Germany) or a Viewlux (Perkin-Elmer). The ratio of the emissions at 665 nm and at […] was taken as the measure for the amount of phosphorylated substrate. The data were normalised (enzyme reaction without inhibitor=0% inhibition, all other assay components but no enzyme=100% inhibition).
A general note: In TR-FRET formats the signal depends on donor and acceptor labels being close together.

The target in assay [2] is T1, CDK9/CycT1. Kind of assay: CDK9/CycT1 kinase assay (TR-FRET, 10 μM ATP). The settings on record: Method 1a. The class given is biochemical.
Text: 1a. CDK9/CycT1 Kinase Assay:
CDK9/CycT1-inhibitory activity of compounds of the present invention was quantified employing the CDK9/CycT1 TR-FRET assay as described in the following paragraphs:
Recombinant full-length His-tagged human CDK9 and CycT1, expressed in insect cells and purified by Ni-NTA affinity chromatography, were purchased from Invitrogen (Cat. No PV4131). As substrate for the kinase reaction biotinylated peptide biotin-Ttds-YISPLKSPYKISEG (C-terminus in amid form) was used which can be purchased e.g. form the company JERINI Peptide Technologies (Berlin, Germany).
as §1, with “16.7 μM=>final” for “3.3 mM=>final”, “10 μM)” for “2 mM)”, “1” for “0.5”
as §2

T1 sequence (P50750 whole entry): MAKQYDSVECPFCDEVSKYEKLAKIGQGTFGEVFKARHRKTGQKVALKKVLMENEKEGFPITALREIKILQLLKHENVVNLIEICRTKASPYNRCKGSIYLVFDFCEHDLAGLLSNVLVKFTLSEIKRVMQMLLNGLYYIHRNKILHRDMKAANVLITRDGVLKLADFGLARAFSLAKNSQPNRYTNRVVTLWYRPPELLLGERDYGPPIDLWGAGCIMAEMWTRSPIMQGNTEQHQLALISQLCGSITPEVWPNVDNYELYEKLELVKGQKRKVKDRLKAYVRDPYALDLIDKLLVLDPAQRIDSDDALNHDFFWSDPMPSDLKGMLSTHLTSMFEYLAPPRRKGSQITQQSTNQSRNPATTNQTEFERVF
T1 sequence (O60563 whole entry partner): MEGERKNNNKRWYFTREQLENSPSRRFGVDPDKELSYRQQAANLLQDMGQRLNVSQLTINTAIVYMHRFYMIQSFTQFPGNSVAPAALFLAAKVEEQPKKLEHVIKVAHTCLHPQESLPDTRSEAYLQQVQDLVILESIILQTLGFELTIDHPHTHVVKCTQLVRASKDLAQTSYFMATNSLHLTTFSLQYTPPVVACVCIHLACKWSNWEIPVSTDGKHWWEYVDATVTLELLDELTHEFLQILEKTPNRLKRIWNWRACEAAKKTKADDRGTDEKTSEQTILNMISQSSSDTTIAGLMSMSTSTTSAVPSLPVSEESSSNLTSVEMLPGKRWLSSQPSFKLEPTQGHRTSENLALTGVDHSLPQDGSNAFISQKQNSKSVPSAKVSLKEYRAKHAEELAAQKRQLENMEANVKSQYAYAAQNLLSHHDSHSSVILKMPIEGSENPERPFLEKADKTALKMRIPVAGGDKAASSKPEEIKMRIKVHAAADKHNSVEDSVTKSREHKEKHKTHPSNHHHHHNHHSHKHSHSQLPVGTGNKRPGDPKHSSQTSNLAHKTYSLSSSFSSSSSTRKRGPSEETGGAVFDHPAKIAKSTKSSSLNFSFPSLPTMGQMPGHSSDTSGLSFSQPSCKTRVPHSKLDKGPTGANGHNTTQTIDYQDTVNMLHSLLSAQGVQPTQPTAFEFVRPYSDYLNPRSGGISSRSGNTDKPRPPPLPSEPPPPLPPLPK

In the case of `COc1cc(F)ccc1-c1cc(Nc2cc(CS(C)(=O)=O)ccn2)ncc1F` [Example 1, 5-Fluoro-4-(4-fluoro-2-methoxyphenyl)-N-{4-[(methylsulfonyl)methyl]pyridin-2-yl}pyridin-2-amine], the half-inhibitory concentration (IC50) against CDK9/CycT1 [1] and against CDK9/CycT1 [2] was 2 nM each time.

Turning to `COc1cc(F)ccc1-c1cc(Nc2cc(CS(C)(=O)=O)cc(C)n2)ncc1F` [Example 2, 5-Fluoro-4-(4-fluoro-2-methoxyphenyl)-N-{6-methyl-4-[(methylsulfonyl)methyl]pyridin-2-yl}pyridin-2-amine], the IC50 on CDK9/CycT1 [1] came to 2 nM; at CDK9/CycT1 [2] it was 3 nM.

On to `COc1cc(F)ccc1-c1cc(Nc2cc(CS(C)(=O)=O)cc(F)n2)ncc1F` [Example 3, 5-Fluoro-4-(4-fluoro-2-methoxyphenyl)-N-{6-fluoro-4-[(methylsulfonyl)methyl]pyridin-2-yl}pyridin-2-amine], for which the IC50 on CDK9/CycT1 [1] amounted to 2 nM; against CDK9/CycT1 [2] it was 3 nM.

Turning to `COc1cc(F)ccc1-c1cc(Nc2cc(CS(C)(=O)=O)cc(C(F)(F)F)n2)ncc1F` [Example 4, 5-Fluoro-4-(4-fluoro-2-methoxyphenyl)-N-{4-[(methylsulfonyl)methyl]-6-(trifluoromethyl)pyridin-2-yl}pyridin-2-amine], the 50% inhibitory concentration (IC50) came out at 3 nM against CDK9/CycT1 [1] and 4 nM on CDK9/CycT1 [2].

As to `COc1cc(F)ccc1-c1cc(Nc2cc(CS(C)(=O)=O)cc(C(F)F)n2)ncc1F` [Example 5, N-{6-(Difluoromethyl)-4-[(methylsulfonyl)methyl]pyridin-2-yl}-5-fluoro-4-(4-fluoro-2-methoxyphenyl)pyridin-2-amine], the results for the IC50 at CDK9/CycT1 [1] and on CDK9/CycT1 [2] were 1 nM and 2 nM, respectively.
